Data published in patent publication US11654136B2, “Phosphoinositide 3-kinase inhibitor with a zinc binding moiety” (Curis, Inc., priority 2011, dated 2023).

Assays:
DOHH2 = experiment: Cell proliferation assay DOHH2; type: cell-based; conditions: Homo sapiens, DOHH-2, B-Cell Lymphoma, 72 hours, read-out: IC50 antiproliferative activity
Description: (§1) Growth inhibition was accessed by adenosine triphosphate (ATP) content assay using Promega CellTiter-Glo kit. Promega CellTiter-Glo kit is an ATP monitoring system based on firefly luciferase. Briefly, 16 μl of mammalian cell lysis and substrate solution was added to 84 µl of culture medium per well to lyse the cells and stabilize the ATP. The mixture was shaken and incubated for 30 minutes and subsequently the luminescence was measured. IC50 values were calculated using PRISM software (GraphPad Software) with sigmoidal dose-response curve fitting.

T47D = experiment: Cell proliferation assay T47D; type: cell-based; conditions: Homo sapiens, Breast, 72 hours, read-out: IC50 antiproliferative activity
Description: as §1

MCF-7 = experiment: Cell proliferation assay MCF-7; type: cell-based; conditions: Homo sapiens, MCF7, Breast, 72 hours, read-out: IC50 antiproliferative activity
Description: as §1

MEG-01 = experiment: Cell proliferation assay MEG-01; type: cell-based; conditions: Homo sapiens, CML, 72 hours, read-out: IC50 antiproliferative activity
Description: as §1

ZR-75-1 = experiment: Cell proliferation assay ZR-75-1; type: cell-based; conditions: Homo sapiens, Breast, 72 hours, read-out: IC50 antiproliferative activity
Description: as §1

WiDr = experiment: Cell proliferation assay WiDr; type: cell-based; conditions: Homo sapiens, Colon, 72 hours, read-out: IC50 antiproliferative activity
Description: as §1

Calu6 = experiment: Cell proliferation assay Calu6; type: cell-based; conditions: Homo sapiens, Calu-6, NSCLC, 72 hours, read-out: IC50 antiproliferative activity
Description: as §1

CaPan2 = experiment: Cell proliferation assay CaPan2; type: cell-based; conditions: Homo sapiens, Capan-2, Pancreas, 72 hours, read-out: IC50 antiproliferative activity
Description: as §1

U937 = experiment: Cell proliferation assay U937; type: cell-based; conditions: Homo sapiens, U-937, AML, 72 hours, read-out: IC50 antiproliferative activity
Description: as §1

HH = experiment: Cell proliferation assay HH; type: cell-based; conditions: Homo sapiens, T-Cell Lymphoma, 72 hours, read-out: IC50 antiproliferative activity
Description: as §1

MDA-MB-361 = experiment: Cell proliferation assay MDA-MB-361; type: cell-based; conditions: Homo sapiens, Breast, 72 hours, read-out: IC50 antiproliferative activity
Description: as §1

T-84 = experiment: Cell proliferation assay T-84; type: cell-based; conditions: Homo sapiens, T84, Colon, 72 hours, read-out: IC50 antiproliferative activity
Description: as §1

[1] = Pharmacokinetic study in rats; type: in vivo; conditions: rat, single oral gavage 20 mg/kg, male Sprague-Dawley rats, plasma
Description: The resulting clear yellow solution was stored at room temperature until picked up for dosing.
Three male Sprague-Dawley rats from Charles River Laboratories were used in this study. High fat diet (VHFD, D12492i) from Research Diets Inc. were provided ad libitum throughout the in-life portion of the study.
Blood samples (approximate volume 150 μL) were collected tail vein at 0.25, 0.5, 1, 3, 6, and 24 hours postdose. Blood samples were placed into tubes containing sodium heparin and centrifuged at 8000 rpm for 6 minutes at 4° C. to separate plasma from the samples. Following centrifugation, the resulting plasma was transferred to clean tubes and stored frozen at −80° C. pending bioanalysis.
The pharmacokinetic parameters were determined from mean concentration-time data in the test subjects. A compartmental modeling of WINNONILIN® Professional 5.2. was used to calculate parameters. Any concentrations that were below the limit of quantitation (lower limit of quantitation=1 ng/mL) were omitted from the calculation of parameters in individual animals.

[2] = Pharmacokinetics in SCID mice bearing Daudi tumors; type: in vivo; conditions: for Area under the Curve / Half-life / Cmax / Tmax: oral gavage; for Area under the Curve / Cmax / Tmax: dose not stated; for Half-life: dose of the table not stated (25, 50 or 100 mg/kg); for Cmax / Tmax: female, mouse
Description: Daudi (non-Hodgkin's lymphoma cell line) cells were implanted into female Scid (severe […] immune-deficient) mice.
At various time points following compound administration, three mice per time point were euthanized with CO2, and blood and tumor tissues were collected. Blood was collected into tubes containing sodium heparin. The plasma was separated via centrifugation. Plasma and tissues were stored at −80° C. for later analysis. A PE Sciex API-3000 LC-MS/MS system (Applied Biosystems, Inc., Foster City, Calif.) was used to analyze compound concentrations in plasma.

[3] = Plasma, Daudi tumor-bearing Scid mice

Compound | IC50 (DOHH2) [nM] | IC50 (T47D) [nM] | IC50 (MCF-7) [nM] | IC50 (MEG-01) [nM] | IC50 (ZR-75-1) [nM] | IC50 (WiDr) [nM] | IC50 (Calu6) [nM] | IC50 (CaPan2) [nM] | IC50 (U937) [nM] | IC50 (HH) [nM] | IC50 (MDA-MB-361) [nM] | IC50 (T-84) [nM] | further results
CS(=O)(=O)N1CCN(Cc2cc3nc(-c4cccc5[nH]ncc45)nc(N4CCOCC4)c3s2)CC1 [GDC-0941, reference compound] | 10 to 100 | > 10000 | 100 to 1000 | > 10000 | 100 to 1000 | > 10000 | > 10000 | > 10000 | 1000 to 10000 | 100 to 1000 | 100 to 1000 | 1000 to 10000 | 
COc1ccc(-c2nc(N3CCOCC3)c3sc(CN(C)c4ncc(C(=O)NO)cn4)cc3n2)cn1 [Compound 1, N-hydroxy-2-(((2-(6-methoxypyridin-3-yl)-4-morpholinothieno[3,2-d]pyrimidin-6-yl)methyl)(methyl)amino)pyrimidine-5-carboxamide] | < 10 | 10 to 100 | < 10 | < 10 | 10 to 100 | 10 to 100 | 10 to 100 | 10 to 100 | < 10 | < 10 | < 10 | 10 to 100 | AUC(0-inf) [1]: 164 ng·h/mL; Cmax [1]: 39.5 ng/mL; Tmax [1]: 6 min; Half-life ([1]; read-out: half-life (T1/2) (converted)): 702 min; Area under the Curve [2, 3]: 1899.26 ng/mL * hr; Half-life [2, 3]: 464 min; Area under the Curve ([2]; Tumor): 3973.56 ng/mL * hr; Half-life ([2]; Tumor): 757.2 min; Cmax ([2]; Tumor): 1040 ng/mL; Tmax ([2]; Tumor): 6 min; Cmax [2, 3]: 2290 ng/mL; Tmax [2, 3]: 14.4 min; Distribution between plasma and tumor tissue ([2]; oral 25, 50 and 100 mg/kg): preferentially accumulates in tumor tissue in a dose dependent manner; Plasma exposure versus dose ([2]; oral 25, 50 and 100 mg/kg, Daudi tumor-bearing Scid mice): dose-dependent exposure
